This is an account of results in publication PMC3884022 (Journal of Hematology & Oncology, 2014).

A short description of data set [1]: Docetaxel PK samples (end of infusion), arm 2. The settings on record: arm 2, IV docetaxel with MK-2206. Type of data set: in vivo, human.
Protocol: For the Q3W schedule, samples were taken in cycle 1 on days 1 to 3 as per the QOD schedule, then on days 5, 7, 15, and in cycle 2 on day 1. Blood samples were collected predose and just before the end of the infusion for carboplatin, paclitaxel, and docetaxel for archival and possible PK analysis. Another sample was taken 30 minutes into the infusion of paclitaxel. These samples were archived for possible future analysis to investigate if any unexpected toxicities may have been as a result of a PK interaction.
The conditions of data set [2]: cited from earlier work.

Each structure is given as a SMILES string.

`CC(=O)O[C@@]12CO[C@@H]1C[C@H](O)[C@@]1(C)C(=O)[C@H](O)C3=C(C)[C@@H](OC(=O)[C@H](O)[C@@H](NC(=O)OC(C)(C)C)c4ccccc4)C[C@@](O)([C@@H](OC(=O)c4ccccc4)[C@H]21)C3(C)C` [docetaxel] registered a mean end-of-infusion concentration in data set [1] of 3.01 µg/mL. For the same compound, in data set [2], the “mean end-of-infusion concentration, range of mean values in the literature” value is 1.68 to 4.06 µg/mL.
